Reference: US20090264426A1, “Bicyclic aromatic substituted pyridone derivative” (priority 2005, published 2009)

Molecular target: T1, human MCH-1R (Homo sapiens, UniProt Q99705)
T1 construct: expressed in transfected cells; host or cells: CHO-K1
Experiment: MCH binding inhibition test
Settings: 50% inhibition of specific [125I]MCH (50 pM) binding; membranes of MCH-1R expressing CHO-K1 cells; 25° C., 1 hour, pH 7.4
Protocol: A human MCH-1R encoding cDNA sequence [FEBS Letters, Vol. 398, 253 (1996); Biochimica et Biophisica Acta, Vol. 1401, 216 (1998)] was cloned to a plasmid vector pEF/myc/cyto (Invitrogen Corporation). The obtained expression vector was transfected to host cells CHO-K1 (American Type Culture Collection) using Lipofectamine Plus Reagent (Life Technology Inc.) to provide MCH-1R expression cells.
Membrane samples prepared from the MCH-1R expression cells were incubated with each test compound and 50 pM of [^125I]MCH (NEN Co.), in an assay buffer (50 mM Tris buffer comprising 10 mM magnesium chloride, 2 mM ethylenediamine tetraacetate, 0.01% bacitracin and 0.2% bovine serum albumin; pH 7.4) at 25° C. for an hour, followed by filtration through a glass filter GF/C (Wattman Co.). After washing the glass filter with 50 mM Tris buffer (pH 7.4) comprising 10 mM magnesium chloride, 2 mM ethylenediamine tetraacetate and 0.04% Tween-20, the radioactive activity on the glass filter was measured. The non-specific binding was measured in the presence of 1 μM human MCH and 50% inhibition concentration (IC50 value) of each test compound to the specific [^125I]MCH binding was determined.

T1 sequence (Q99705 whole entry): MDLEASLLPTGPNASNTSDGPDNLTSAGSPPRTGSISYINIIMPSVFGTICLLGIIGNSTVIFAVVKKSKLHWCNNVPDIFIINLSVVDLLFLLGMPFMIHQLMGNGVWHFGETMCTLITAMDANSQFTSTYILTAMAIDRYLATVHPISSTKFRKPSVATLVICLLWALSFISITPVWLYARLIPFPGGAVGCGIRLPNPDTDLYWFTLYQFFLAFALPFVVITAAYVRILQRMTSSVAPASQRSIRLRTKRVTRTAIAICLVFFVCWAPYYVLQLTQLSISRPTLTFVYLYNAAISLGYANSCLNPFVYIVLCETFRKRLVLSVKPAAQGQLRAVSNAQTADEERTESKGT

Row | SMILES | IC50 [nM]
1 | O=c1cc(OCc2ccc(Cl)cn2)ccn1-c1ccc2nc(OCCCN3CCCC3)ccc2c1 [Example 20, 4-[(5-Chloropyridin-2-yl)methoxy]-1-[2-(3-pyrrolidin-1-ylpropoxy)quinolin-6-yl]pyridin-2(1H)-one] | 7.8
2 | O=c1cc(OCc2ccccc2)ccn1-c1ccc2cn(CCN3CCCC3)nc2c1 [Example 27, 4-(Benzyloxy)-1-[2-(2-pyrrolidin-1-ylethyl)-2H-indazol-6-yl]pyridin-2(1H)-one] | 80
3 | O=c1cc(/C=C/c2ccc(Cl)cn2)ccn1-c1ccc2nc(OCCN3CCCC3)cnc2c1 [Example 57, 4-[(E)-2-(5-chloropyridin-2-yl)vinyl]-1-[2-(2-pyrrolidin-1-ylethoxy)quinoxalin-6-yl]pyridin-2(1H)-one] | 10.1
4 | Cc1c(CCCN2CCCC2)nc2ccc(-n3ccc(OCc4ccc(Cl)cn4)cc3=O)cn12 [Example 63, 4-[(5-Chloropyridin-2-yl)methoxy]-1-[3-methyl-2-(3-pyrrolidin-1-ylpropyl)imidazo[1,2-a]pyridin-6-yl]pyridin-2(1H)-one] | 22
5 | Cn1c(CN2CCCC2)cc2ccc(-n3ccc(OCc4ccc(Cl)cn4)cc3=O)cc21 [Example 70, 4-[(5-Chloropyridin-2-yl)methoxy]-1-[1-methyl-2-(pyrrolidin-1-ylmethyl)-1H-indol-6-yl]pyridin-2(1H)-one] | 11
6 | O=c1cc(OCc2ccc(F)cc2)ccn1-c1ccc2oc(CN3CCCCCC3)cc2c1 [Example 89, 1-[2-(Azepan-1-ylmethyl)-1-benzofuran-5-yl]-4-[(4-fluorobenzyl)oxy]pyridin-2(1H)-one] | 19
7 | CC(C)N(C)c1nc2ccc(-n3ccc(OCCOc4ccc(F)cc4)cc3=O)cc2[nH]1 [Example 90, 4-[2-(4-fluorophenoxy)ethoxy]-1-{2-[isopropyl(methyl)amino]-1H-benzimidazol-6-yl}pyridin-2(1H)-one] | 9.8
8 | O=c1cc(OCc2ccc(F)cc2)ccn1OCc1ccc2nc(CN3CCCC3)ccc2c1 [Example 94, 4-[(4-Fluorobenzyl)oxy]-1-{[2-(pyrrolidin-1-ylmethyl)quinolin-6-yl]methoxy}pyridin-2(1H)-one] | 10.5
9 | O=c1cc(OCc2ccc(F)cc2)ccn1-c1ccc2nc(CN3CCC3)ccc2n1 [Example 95, 1-[6-(Azetidin-1-ylmethyl)-1,5-naphthyridin-2-yl]-4-[(4-fluorobenzyl)oxy]pyridin-2(1H)-one] | 23
10 | O=c1cc(OCc2ccc(F)cc2)ccn1-c1ccc2cc(CN3CCC3)cnc2c1 [Example 98, 1-[3-(Azetidin-1-ylmethyl)quinolin-7-yl]-4-[(4-fluorobenzyl)oxy]pyridin-2(1H)-one] | 9.6

The remaining lines, values ahead:

Row | IC50 [nM] | SMILES
11 | 6.4 | O=c1cc(OCc2ccc(Cl)cn2)ccn1-c1ccc2nc(OCCN3CCCC3)ccc2c1 [Example 8, 4-[(5-Chloropyridin-2-yl)methoxy]-1-[2-(2-pyrrolidin-1-ylethoxy)quinolin-6-yl]pyridin-2(1H)-one]
12 | 6.2 | CCNCc1ccc2cc(-n3ccc(OCc4ccc(F)cc4)cc3=O)ccc2n1 [Example 23, 1-{2-[(Ethylamino)methyl]quinolin-6-yl}-4-[(4-fluorobenzyl)oxy]pyridin-2(1H)-one]
13 | 7.6 | O=c1cc(OCc2ccccc2)ccn1-c1ccc2cc(CN3CCC3)ccc2n1 [Example 28, 1-[6-(Azetidin-1-ylmethyl)quinolin-2-yl]-4-(benzyloxy)pyridin-2(1H)-one]
14 | 5.9 | O=c1cc(OCc2ccc(Cl)cn2)ccn1-c1ccc2nc(CN3CCC3)ccc2c1 [Example 30, 1-[2-(Azetidin-1-ylmethyl)quinolin-6-yl]-4-[(5-chloropyridin-2-yl)methoxy]pyridin-2(1H)-one]
15 | 2.2 | CNCc1ccc2cc(-n3ccc(OCc4ccc(Cl)cc4)cc3=O)ccc2n1 [Example 35, 4-[(4-Chlorobenzyl)oxy]-1-{2-[(methylamino)methyl]quinolin-6-yl}pyridin-2(1H)-one]
16 | 3.1 | O=c1cc(OCc2ccccc2)ccn1-c1ccc2cc(OCCN3CCCC3)ccc2c1 [Example 38, 4-(Benzyloxy)-1-[6-(2-pyrrolidin-1-ylethoxy)-2-naphthyl]pyridin-2(1H)-one]
17 | 5.2 | CCCNCc1ccc2cc(-n3ccc(OCc4ccc(Cl)cn4)cc3=O)ccc2n1 [Example 40, 4-[(5-Chloropyridin-2-yl)methoxy]-1-{2-[(propylamino)methyl]quinolin-6-yl}pyridin-2(1H)-one]
18 | 5.1 | Cn1c(CCCN2CCCC2)nc2ccc(-n3ccc(OCc4ccc(Cl)cc4)cc3=O)cc21 [Example 65, 4-[(4-Chlorobenzyl)oxy]-1-[1-methyl-2-(3-pyrrolidin-1-ylpropyl)-1H-benzimidazol-6-yl]pyridin-2(1H)-one]
19 | 2.9 | CCCNCCc1ccc2cc(-n3ccc(OCc4ccccc4)cc3=O)ccc2n1 [Example 76, 4-(Benzyloxy)-1-{2-[2-(propylamino)ethyl]quinolin-6-yl}pyridin-2(1H)-one]
20 | 6 | O=c1cc(OCc2ccc(F)cc2)ccn1-c1ccc2cc(CN3CCC3)ncc2c1 [Example 99, 1-[3-(Azetidin-1-ylmethyl)isoquinolin-7-yl]-4-[(4-fluorobenzyl)oxy]pyridin-2(1H)-one]
